Results as given in ChEMBL document CHEMBL5247611, “A bibliometric analysis of PROTAC from 2001 to 2021” (Eur J Med Chem, 2022).
Values belong to the molecule of their own block, whether it stands above or below them.

Key:
MCF7 [1] = experiment: Antiproliferative activity against human MCF7 cells assessed as inhibition of cell growth measured after 5 days by PrestoBlue cell viability assay; assay type: functional, cell-based; settings: MCF7, 120 h
MM1.S = experiment: Antiproliferative activity against human MM1.S cells incubated for 72 hrs by MTS assay; assay type: functional, cell-based
[2] = biological target: Protein cereblon/Protein deacetylase HDAC6 (Homo sapiens, UniProt Q96SW2+Q9UBN7); experiment: Protac activity at CRBN/HDAC6 in human MM1.S assessed as degradation of HDAC6 incubated for 6 hrs by ELISA; assay type: cell-based
[3] = biological target: Protein cereblon/GTPase KRas (Homo sapiens, UniProt P01116+Q96SW2, G12C); experiment: Protac activity at CRBN/KRAS G12C mutant in human NCI-H358 cells assessed as degradation of KRAS G12C mutant; assay type: cell-based
[4] = biological target: Protein cereblon/Cyclin-dependent kinase 6 (Homo sapiens, UniProt Q00534+Q96SW2); experiment: Protac activity at CRBN/CDK6 in human MDA-MB-231 cells; assay type: cell-based
[5] = biological target: Protein cereblon/Cyclin-dependent kinase 4 (Homo sapiens, UniProt P11802+Q96SW2); experiment: Protac activity at CRBN/CDK4 in human MDA-MB-231 cells; assay type: cell-based
LNCaP = experiment: Antiproliferative activity against human LNCaP cells; assay type: functional, cell-based
[6] = biological target: Androgen receptor (Homo sapiens) (UniProt P10275); experiment: Binding affinity to androgen receptor (unknown origin) at 10 uM relative to control
NCI-H358 = experiment: Antiproliferative activity against human NCI-H358 cells assessed as inhibition of cell growth incubated for 5 days by celltiter-glo luminescent cell viability assay; assay type: functional, cell-based; settings: NCI-H358, 120 h
MV4-11 = experiment: Antiproliferative activity against human MV4-11 cells incubated for 48 to 72 hrs by celltiter-glo luminescent cell viability assay; assay type: functional, cell-based
[7] = biological target: T1, von Hippel-Lindau disease tumor suppressor/Bromodomain-containing protein 2 (Homo sapiens, UniProt P25440+P40337); experiment: Protac activity at VHL/BRD2 in human HeLa cells assessed as degradation of BRD2 incubated for 24 hrs by Western blotting analysis; assay type: cell-based
[8] = biological target: T2, von Hippel-Lindau disease tumor suppressor/Bromodomain-containing protein 4 (Homo sapiens, UniProt O60885+P40337); experiment: Protac activity at VHL/BRD4 in human HeLa cells assessed as degradation of BRD4 incubated for 24 hrs by Western blotting analysis; assay type: cell-based
[9] = biological target: T3, von Hippel-Lindau disease tumor suppressor/Bromodomain-containing protein 3 (Homo sapiens, UniProt P40337+Q15059); experiment: Protac activity at VHL/BRD3 in human HeLa cells assessed as degradation of BRD3 incubated for 24 hrs by Western blotting analysis; assay type: cell-based
BaF3 = experiment: Antiproliferative activity against mouse BaF3 cells harboring EGFR L858R/T790M mutant assessed as cell growth inhibition incubated for 72 hrs; assay type: functional, cell-based; settings: BaF3, 72 h
MCF7 [10] = experiment: Antiproliferative activity against human MCF7 cells assessed as cell growth inhibition incubated for 6 days with media replacement for every 2 to 3 days by MTT assay; assay type: functional, cell-based
[11] = biological target: von Hippel-Lindau disease tumor suppressor/Estrogen receptor (Homo sapiens, UniProt P03372+P40337); experiment: Protac activity at VHL/ER alpha in human MCF7 cells assessed as degradation of ER alpha incubated for 6 hrs by Western blot analysis; assay type: cell-based
[12] = Cytotoxicity against HEK293 cells assessed as inhibition of cell growth; assay type: toxicity, cell-based; settings: human
[13] = biological target: T3, von Hippel-Lindau disease tumor suppressor/Bromodomain-containing protein 3; experiment: Protac activity at VHL/BRD3 in HEK293 cells assessed as degradation of BRD3 incubated for 4 hrs by Western blot analysis; assay type: cell-based
[14] = biological target: T2, von Hippel-Lindau disease tumor suppressor/Bromodomain-containing protein 4; experiment: Protac activity at VHL/BRD4 in HEK293 cells assessed as degradation of BRD4 incubated for 4 hrs by Western blot analysis; assay type: cell-based
[15] = biological target: T1, von Hippel-Lindau disease tumor suppressor/Bromodomain-containing protein 2; experiment: Protac activity at VHL/BRD2 in HEK293 cells assessed as degradation of BRD2 incubated for 4 hrs by Western blot analysis; assay type: cell-based
[16] = biological target: von Hippel-Lindau disease tumor suppressor/Cyclin-dependent kinase 6 (Homo sapiens, UniProt P40337+Q00534); experiment: Protac activity at VHL/CDK6 in human MM1.S cells assessed as degradation of CDK6 incubated for 16 hrs by immunoblot assay; assay type: cell-based
[17] = biological target: Protein fem-1 homolog B/Bromodomain-containing protein 4 (Homo sapiens, UniProt O60885+Q9UK73); experiment: Protac activity at FEM1B/BRD4 in human HEK293T cells assessed as degradation of BRD4 incubated for 8 hrs by Western blot analysis; assay type: cell-based
[18] = biological target: Protein cereblon/Bromodomain-containing protein 4 (Homo sapiens, UniProt O60885+Q96SW2); experiment: Protac activity at CRBN/BRD4 (unknown origin); assay type: protein assay
OVCAR-8 = experiment: Antiproliferative activity against human OVCAR-8 cells; assay type: functional, cell-based
HeLa = experiment: Antiproliferative activity against human HeLa cells; assay type: functional, cell-based
T47D = experiment: Antiproliferative activity against human T47D cells; assay type: functional, cell-based
[19] = biological target: von Hippel-Lindau disease tumor suppressor/Epidermal growth factor receptor (Homo sapiens, UniProt P00533+P40337); experiment: Protac activity at VHL/wildtype EGFR in human OVCAR-8 cells assessed as degradation of wild type EGFR incubated for 24 hrs by immunoblot assay; assay type: cell-based
[20] = biological target: T4, von Hippel-Lindau disease tumor suppressor/GTPase KRas (Homo sapiens, UniProt P01116+P40337, G12C); experiment: Protac activity at VHL/KRAS G12C mutant in human NCI-H358 cells assessed as degradation of KRAS G12C mutant incubated for 24 hrs by immunoblot assay; assay type: cell-based
[21] = biological target: T4, von Hippel-Lindau disease tumor suppressor/GTPase KRas; experiment: Protac activity at VHL/KRAS G12C mutant in human NCI-H23 cells assessed as degradation of KRAS G12C mutant incubated for 24 hrs by immunoblot assay; assay type: cell-based
[22] = biological target: T4, von Hippel-Lindau disease tumor suppressor/GTPase KRas; experiment: Protac activity at VHL/KRAS G12C mutant in human MIA PaCa-2 cells assessed as degradation of KRAS G12C mutant incubated for 24 hrs by immunoblot assay; assay type: cell-based
[23] = biological target: T4, von Hippel-Lindau disease tumor suppressor/GTPase KRas; experiment: Protac activity at VHL/KRAS G12C mutant in human SW1573 cells assessed as degradation of KRAS G12C mutant incubated for 24 hrs by immunoblot assay; assay type: cell-based
[24] = biological target: T4, von Hippel-Lindau disease tumor suppressor/GTPase KRas; experiment: Protac activity at VHL/KRAS G12C mutant in human NCI-H2030 cells assessed as degradation of KRAS G12C mutant incubated for 24 hrs by immunoblot assay; assay type: cell-based
[25] = biological target: T2, von Hippel-Lindau disease tumor suppressor/Bromodomain-containing protein 4; experiment: Protac activity at VHL/BRD4 in human HCT-116 cells assessed as degradation of BRD4 incubated for 24 hrs by immunoblot assay; assay type: cell-based
[26] = biological target: von Hippel-Lindau disease tumor suppressor/Histone deacetylase 3 (Homo sapiens, UniProt O15379+P40337); experiment: Protac activity at VHL/HDAC3 in human MDA-MB-468 assessed as degradation of HDAC3 incubated for 14 hrs by Western blot analysis; assay type: cell-based

T4 sequence (P01116 whole entry G12C, stated change not applied): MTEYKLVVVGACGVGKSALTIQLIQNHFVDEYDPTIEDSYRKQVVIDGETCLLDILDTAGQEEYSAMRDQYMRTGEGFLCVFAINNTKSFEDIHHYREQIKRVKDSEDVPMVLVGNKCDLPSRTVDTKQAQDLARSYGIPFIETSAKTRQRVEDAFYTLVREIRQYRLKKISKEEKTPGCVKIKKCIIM
T4 sequence (P40337 whole entry, stated change not applied): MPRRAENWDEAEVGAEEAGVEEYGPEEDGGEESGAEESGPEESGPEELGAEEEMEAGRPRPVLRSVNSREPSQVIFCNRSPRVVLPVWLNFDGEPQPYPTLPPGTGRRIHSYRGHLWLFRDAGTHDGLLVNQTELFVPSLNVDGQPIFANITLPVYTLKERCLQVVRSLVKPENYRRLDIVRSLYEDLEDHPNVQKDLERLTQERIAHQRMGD
T2 sequence (P40337 whole entry, looked up, other chains not shown): as the sequence (P40337 whole entry, stated change not applied) above
T1 sequence (P25440 whole entry): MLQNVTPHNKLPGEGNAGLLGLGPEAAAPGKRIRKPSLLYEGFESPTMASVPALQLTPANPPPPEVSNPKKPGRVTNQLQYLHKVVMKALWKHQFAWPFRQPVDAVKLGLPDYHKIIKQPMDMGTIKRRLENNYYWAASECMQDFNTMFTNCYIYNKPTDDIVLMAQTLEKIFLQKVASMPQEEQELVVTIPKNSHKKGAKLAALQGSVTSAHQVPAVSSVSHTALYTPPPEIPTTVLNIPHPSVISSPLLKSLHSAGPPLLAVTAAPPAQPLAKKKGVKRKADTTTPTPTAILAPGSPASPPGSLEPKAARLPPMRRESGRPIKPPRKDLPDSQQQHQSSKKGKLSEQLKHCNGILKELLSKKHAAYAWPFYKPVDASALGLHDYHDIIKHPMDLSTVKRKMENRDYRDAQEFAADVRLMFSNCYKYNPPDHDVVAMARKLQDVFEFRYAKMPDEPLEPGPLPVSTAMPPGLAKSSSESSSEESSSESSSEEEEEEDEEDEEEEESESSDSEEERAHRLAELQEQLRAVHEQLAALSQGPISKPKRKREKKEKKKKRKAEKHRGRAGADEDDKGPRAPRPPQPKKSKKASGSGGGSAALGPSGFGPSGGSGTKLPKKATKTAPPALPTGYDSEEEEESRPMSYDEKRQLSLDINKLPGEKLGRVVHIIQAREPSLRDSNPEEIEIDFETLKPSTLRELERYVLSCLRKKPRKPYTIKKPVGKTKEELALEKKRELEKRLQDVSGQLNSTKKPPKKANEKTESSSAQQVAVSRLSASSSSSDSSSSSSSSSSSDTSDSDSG
T1 sequence (P40337 whole entry): as the sequence (P40337 whole entry, stated change not applied) above
Sequence of Protein cereblon/Cyclin-dependent kinase 4 (P11802 whole entry): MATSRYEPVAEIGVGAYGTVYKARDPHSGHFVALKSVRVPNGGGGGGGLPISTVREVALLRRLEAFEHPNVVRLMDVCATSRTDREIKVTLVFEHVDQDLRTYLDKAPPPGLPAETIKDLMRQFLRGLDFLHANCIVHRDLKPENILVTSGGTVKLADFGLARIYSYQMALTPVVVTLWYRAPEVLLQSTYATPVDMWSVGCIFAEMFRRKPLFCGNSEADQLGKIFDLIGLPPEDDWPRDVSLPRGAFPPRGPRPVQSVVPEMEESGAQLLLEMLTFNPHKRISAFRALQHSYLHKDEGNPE
Sequence of Protein cereblon/Cyclin-dependent kinase 4 (Q96SW2 whole entry): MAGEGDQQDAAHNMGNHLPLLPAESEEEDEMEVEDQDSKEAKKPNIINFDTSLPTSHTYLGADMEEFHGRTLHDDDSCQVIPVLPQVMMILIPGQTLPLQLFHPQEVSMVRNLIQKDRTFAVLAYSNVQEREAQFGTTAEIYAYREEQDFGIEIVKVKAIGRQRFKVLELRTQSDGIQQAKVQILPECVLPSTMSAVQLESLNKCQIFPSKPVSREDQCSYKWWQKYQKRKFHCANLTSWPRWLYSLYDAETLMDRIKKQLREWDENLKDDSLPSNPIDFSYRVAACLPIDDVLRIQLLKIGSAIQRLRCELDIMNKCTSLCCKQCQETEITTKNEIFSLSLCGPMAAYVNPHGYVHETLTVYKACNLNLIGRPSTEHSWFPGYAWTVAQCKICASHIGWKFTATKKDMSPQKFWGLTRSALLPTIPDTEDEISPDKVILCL
T3 sequence (Q15059 whole entry): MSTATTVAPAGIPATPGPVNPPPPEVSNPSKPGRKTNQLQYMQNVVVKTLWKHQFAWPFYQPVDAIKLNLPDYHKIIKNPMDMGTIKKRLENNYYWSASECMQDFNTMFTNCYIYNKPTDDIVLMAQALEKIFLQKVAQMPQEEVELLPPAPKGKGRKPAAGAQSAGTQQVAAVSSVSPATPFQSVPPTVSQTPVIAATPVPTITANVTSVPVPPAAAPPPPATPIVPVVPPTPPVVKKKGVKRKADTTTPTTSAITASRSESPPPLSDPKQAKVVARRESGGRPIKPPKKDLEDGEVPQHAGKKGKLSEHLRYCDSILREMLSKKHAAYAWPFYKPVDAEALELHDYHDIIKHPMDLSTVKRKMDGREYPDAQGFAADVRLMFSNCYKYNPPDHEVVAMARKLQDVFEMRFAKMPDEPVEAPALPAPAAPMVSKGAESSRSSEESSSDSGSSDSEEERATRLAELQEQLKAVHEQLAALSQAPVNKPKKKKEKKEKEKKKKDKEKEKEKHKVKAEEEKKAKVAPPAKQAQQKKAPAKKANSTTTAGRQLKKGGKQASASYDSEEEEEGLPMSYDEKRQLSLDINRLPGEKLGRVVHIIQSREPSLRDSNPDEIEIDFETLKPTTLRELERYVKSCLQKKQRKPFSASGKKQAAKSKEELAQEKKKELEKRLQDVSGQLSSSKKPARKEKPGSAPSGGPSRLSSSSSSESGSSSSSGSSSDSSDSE
T3 sequence (P40337 whole entry): as the sequence (P40337 whole entry, stated change not applied) above
Sequence of von Hippel-Lindau disease tumor suppressor/Cyclin-dependent kinase 6 (Q00534 whole entry): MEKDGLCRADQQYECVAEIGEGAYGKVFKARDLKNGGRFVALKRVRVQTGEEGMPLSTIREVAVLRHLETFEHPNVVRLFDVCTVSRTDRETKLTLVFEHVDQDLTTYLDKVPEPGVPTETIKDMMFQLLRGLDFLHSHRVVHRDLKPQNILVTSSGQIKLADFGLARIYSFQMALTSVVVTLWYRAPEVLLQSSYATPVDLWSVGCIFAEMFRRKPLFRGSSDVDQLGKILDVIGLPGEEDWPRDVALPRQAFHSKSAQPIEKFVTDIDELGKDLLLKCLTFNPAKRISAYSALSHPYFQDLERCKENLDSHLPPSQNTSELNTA
Sequence of von Hippel-Lindau disease tumor suppressor/Cyclin-dependent kinase 6 (P40337 whole entry): as the sequence (P40337 whole entry, stated change not applied) above
Sequence of Protein cereblon/Cyclin-dependent kinase 6 (Q00534 whole entry): as the sequence (Q00534 whole entry) above
Sequence of Protein cereblon/Cyclin-dependent kinase 6 (Q96SW2 whole entry): as the sequence (Q96SW2 whole entry) above

Structure (SMILES): Nc1ccccc1NC(=O)c1ccc(COc2cccc3c2CN(C2CCC(=O)NC2=O)C3=O)cc1 (stereo not given)
IC50 (MM1.S): 43 nM

Structure (SMILES): COc1cc(Cl)c(-c2cc(Cl)ccc2Cl)cc1C(=O)N1CCN(C(=O)/C=C/C(=O)NCCCCCCNc2cccc3c2C(=O)N(C2CCC(=O)NC2=O)C3=O)CC1 (stereo not given)
EC50 [3]: 1250 nM

Structure (SMILES): CC(=O)C1=C(O)N(C2CCCC2)c2nc(Nc3ccc(N4CCN(Cc5cn(CCCCCNc6cccc7c6C(=O)N(C6CCC(=O)NC6=O)C7=O)nn5)CC4)cn3)ncc2C1C (stereo not given)
EC50 [4]: 34.1 nM
EC50 [5]: 12.9 nM

Structure (SMILES): CC1(C)C(=O)N(c2ccc(C#N)c(C(F)(F)F)c2)C(=S)N1COCCOCCOn1cc(CCCCCC(=O)CC23CC4CC(CC(C4)C2)C3)nn1
IC50 (LNCaP): 1750 nM
Activity [6]: 82.6%

Structure (SMILES): CN(C)C(=O)c1cn(C2CCCC2)c2cnc(Nc3ccc(N4CCN(c5cn(CCCCCNc6cccc7c6C(=O)N(C6CCC(=O)NC6=O)C7=O)nn5)CC4)cn3)nc12 (stereo not given)
EC50 [5]: 97 nM

Structure (SMILES): C=CC(=O)N1CCN(c2nc(NCCCN3CCN(CCCNc4cccc5c4C(=O)N(C4CCC(=O)NC4=O)C5=O)CC3)nc3cc(Cl)c(-c4cc(O)cc5ccccc45)c(F)c23)CC1 (stereo not given)
IC50 (NCI-H358): 510 nM

Structure (SMILES): Cc1ncsc1-c1ccc2c(c1)OCCOCCO[C@H](NC(=O)C[C@@H]1N=C(c3ccc(Cl)cc3)c3c(sc(C)c3C)-n3c(C)nnc31)COCCOCCOCC(=O)N[C@H](C(C)(C)C)C(=O)N1C[C@@H](O)C[C@@H]1C(=O)NC2
EC50 (MV4-11): 300 nM
EC50 [7]: > 125 nM
EC50 [8]: 25 nM
EC50 [9]: > 125 nM

Structure (SMILES): O=C1CCC(N2C(=O)c3cccc(NCCOCCOCCOCCN4CCN(c5ccc(-c6ccc7c(c6)C(=O)N(C(C(=O)Nc6nccs6)c6ccccc6)C7)cn5)CC4)c3C2=O)C(=O)N1 (stereo not given)
IC50 (BaF3): 96 nM

Structure (SMILES): C#CCCN(C(=O)CCl)c1ccc2c(c1)OCCN2CC(=O)NCCCCNC(=O)C[C@@H]1N=C(c2ccc(Cl)cc2)c2c(sc(C)c2C)-n2c(C)nnc21
EC50 [17]: 250 nM

Structure (SMILES): Cc1sc2c(c1C)C(c1ccc(Cl)cc1)=N[C@@H](CC(=O)NCCCCCNC(=O)COc1ccc(C3CCC(=O)NC3=O)cc1)c1nnc(C)n1-2 (stereo not given in full)
EC50 [18]: 0.87 nM

Structure (SMILES): C=C(F)C(=O)N1CCN(c2nc(O[C@@H]3CCCN3CCCOCCC(=O)N[C@H](C(=O)N3C[C@H](O)C[C@H]3C(=O)NCc3ccc(-c4scnc4C)cc3)C(C)(C)C)nc3c2CCN(c2cccc4cccc(Cl)c24)C3)C[C@H]1CC#N
EC50 [20]: 250 nM
EC50 [21]: 250 nM
EC50 [22]: 250 nM
EC50 [23]: 250 nM
EC50 [24]: 250 nM

Structure (SMILES): COc1cc(C(=O)NCCOCCOCCOCCNC(=O)C[C@@H]2N=C(c3ccc(Cl)cc3)c3c(sc(C)c3C)-n3c(C)nnc32)ccc1NC(=O)[C@@H]1N[C@@H](CC(C)(C)C)[C@](C#N)(c2ccc(Cl)cc2F)[C@H]1c1cccc(Cl)c1F
EC50 [25]: 23.1 nM

More lines, main results first:

IC50 (MCF7 [1]): 0.8 nM
Structure (SMILES): CCN(CCCCCCCC(=O)NC(C(=O)N1C[C@@H](O)C[C@@H]1C(=O)N[C@H](C)c1ccc(-c2scnc2C)cc1)C(C)(C)C)CCOc1ccc(C(=O)c2c(-c3ccc(O)cc3)sc3cc(O)ccc23)cc1 (stereo not given in full)

EC50 [2]: 1.9 nM
Structure (SMILES): O=C(CCCCCCC(=O)N/N=C/c1ccc(OCCCC#Cc2cccc3c2CN(C2CCC(=O)NC2=O)C3=O)cc1)NO (stereo not given)

IC50 (MCF7 [10]): 13.2 nM
EC50 [11]: 1.1 nM
Structure (SMILES): Cc1ncsc1-c1ccc([C@@H](C)NC(=O)[C@H]2C[C@H](O)CN2C(=O)[C@H](NC(=O)CCCCOc2ccc(CCNC(=O)c3ccc(C(=O)c4c(-c5ccc(O)cc5)sc5cc(O)ccc45)cc3)cc2)C(C)(C)C)cc1

EC50 [13]: 3.3 nM
EC50 [14]: 0.7 nM
EC50 [15]: 1.1 nM
Structure (SMILES): Cc1ncsc1-c1ccc(CNC(=O)[C@H]2C[C@H](O)CN2C(=O)[C@H](NC(=O)COCC(C)(COCCOCCOCCNC(=O)C[C@H]2N=C(c3ccc(Cl)cc3)c3c(sc(C)c3C)-n3c(C)nnc32)COCCOCCOCCNC(=O)C[C@H]2N=C(c3ccc(Cl)cc3)c3c(sc(C)c3C)-n3c(C)nnc32)C(C)(C)C)cc1
IC50 [12]: 1.1 nM

EC50 [16]: 5.1 nM
Structure (SMILES): CC(=O)C1=C(O)N(C2CCCC2)c2nc(Nc3ccc(N4CCN(CCOCCOCCOc5cc(-c6scnc6C)ccc5CNC(=O)[C@@H]5C[C@@H](O)CN5C(=O)C(NC(=O)C5(F)CC5)C(C)(C)C)CC4)cn3)ncc2C1C (stereo not given in full)

IC50 (OVCAR-8): 297 nM
IC50 (HeLa): 246 nM
IC50 (T47D): 18 nM
Structure (SMILES): Cc1ncsc1-c1ccc(CNC(=O)[C@@H]2C[C@@H](OC(=O)CCCCn3cc(NC(=O)CC[C@@H](NC(=O)c4ccc(NCc5cnc6nc(N)[nH]c(=O)c6n5)cc4)C(=O)O)nn3)CN2C(=O)[C@@H](NC(=O)COCCCOCCNC(=O)C[C@@H]2N=C(c3ccc(Cl)cc3)c3c(sc(C)c3C)-n3c(C)nnc32)C(C)(C)C)cc1

EC50 [19]: 39.2 nM
Structure (SMILES): Cc1ncsc1-c1ccc(CNC(=O)[C@@H]2C[C@@H](O)CN2C(=O)[C@@H](NC(=O)COCCOCCOCCOc2ccc(-c3ccc4ncnc(Nc5ccc(OCc6cccc(F)c6)c(Cl)c5)c4c3)cc2)C(C)(C)C)cc1

EC50 [26]: 42 nM
Structure (SMILES): CCCNNC(=O)c1ccc(-c2ccc(NC(=O)CCCCCCC(=O)NC(C(=O)N3C[C@@H](O)C[C@@H]3C(=O)N[C@H](C)c3ccc(-c4scnc4C)cc3)C(C)(C)C)cc2)cc1 (stereo not given in full)
